Results: patent publication US12042479B2, “Use of topical formulations of cannabinoids in the treatment of epidermolysis bullosa and related connective tissue disorders” (priority 2016, dated 2024)
Entries after “also recorded” stand apart in the source; their conditions may differ. Like-named read-outs stand apart in the source and are kept apart here.

Columns and labels:
CCL2/MCP-1 = assay type: cell-based, human
E-cadherin = assay: TGFβ1-induced E-cadherin inhibition in HaCaT keratinocytes (immunoblot); assay type: cell-based; conditions: human keratinocytes; E-cadherin/β-tubulin ratio; FIG. 21, 24
Source text: (§1) For western blotting in the wound healing analysis, epithelial-mesenchymal transition (EMT) is a critical element of epithelial biology, cancer development, and fibrosis. Chronic activation of TGF-β-signaling in the skin ultimately leads to fibrosis (keloid). EMT of keratinocytes is adaptive response in the normal wound healing process. It is characterized by decrease of E-cadherin (important element of keratinocyte integrity and tight junction formation) expression and upregulation of cellular fibronectin (Fibronectin-EDA) production. The latter is a very important protective element of epithelial cells during mucosal tissue repairs.
(§2) Total protein extracts were prepared from synchronized HaCaT cells at different times. […]
(§3) Assay Procedures: EMT induced by TGFβ1 in keratinocytes was analyzed by expression of human E-Cadherin (E-CDH) and Cellular Fibronectin (FBN-EDA). Fibroblast activation and differentiation was determined by αSMA expression. E-CDH, FBN-EDA and αSMA proteins were determined by SDS-PAGE and Immunobloting using mouse anti-human E-CDH, FBN-EDA and αSMA monoclonal antibodies. […] Density of the bands was quantified in two infrared channels independently using Odyssey software 2.1 (LI-COR Biosciences). The results are expressed as a protein/β-tubulin/HSP90 density ratio.

fibronectin-EDA = assay: TGFβ1-induced fibronectin-EDA expression in HaCaT keratinocytes (immunoblot); assay type: cell-based; conditions: human keratinocytes; fibronectin-EDA/β-tubulin ratio; FIG. 21, 25
Source text: as §1, §2, §3

[1] = test system: keratins K5, K6, K14, K15, K16, K17; assay: Keratin expression in HaCaT keratinocytes by Western blot; assay type: cell-based, human; conditions: 10 μM
[2] = test system: keratins K5, K6, K14, K15, K16, K17; assay: as above; assay type: cell-based, human; conditions: for expression of K15: Western blot, cells pretreated with IFNγ/TNFα, FIG. 6 right; for K5 protein expression / K14 protein expression / K15 protein expression / K16 protein expression / K17 protein expression: post-differentiating human keratinocyte cells, concentration dependent effect, FIG. 20
Protocol: Cell culturing was performed as follows: HaCaT, human immortalized keratinocyte cell line was cultured in Dulbecco's Modified Eagle Medium (DMEM; Life Technologies Hungary Ltd.) supplemented with 10 (V/V) % fetal bovine serum (FBS; Life Technologies Hungary Ltd.) and antibiotics mixture (penicillin and streptomycin in 1:100; PAA Laboratories GmbH, Pasching, Austria) and Fungizone® Antimicotic (in 1:200; Life Technologies Hungary Ltd.) respectively.
Cells were cultured at 37° C. in humidified, 5% CO2-containing atmosphere, the medium was changed every other day, and cells were sub-cultured at 70-80% confluence in all cases. For the drug treatment, the medium was changed every day.
Western blotting was used to determine the expression of keratins in HaCaT cells. The initial cell count was 2×10^5 cells/per Petri dish in “small” (d=35 mm) Petri dishes in 1.5 mL culture medium (DMEM supplemented with FBS (10%), antibiotics and antimycotics). Cells were harvested at the following stages: preconfluent (proliferating) and postconfluent (differentiating). The combinations employed for Western blotting were cannabidiols:cannabinol (1:0.1 μM), cannabidiols:cannabinol (0.1:1 μM), and cannabidiols:cannabinol (1:1 μM). The genes whose expression was investigated by Western blotting were GAPDH or β-actin as internal controls and (K1), K5, K6, (K10), K14, K15, K16, and K17. Protein samples were used at 5 μl/well. The standards used were PageRuler Plus Prestained (Pierce). Electrophoresis was at 100 volts.
Transfer was performed using the Trans-Blot® Turbo™ Transfer System (1.3 A, 25 V, 7 min). The primary antibody was used at 1:100 in 5% milk containing PBS; overnight at 4° C.; the primary antibody was guinea pig anti-human keratins: anti human Keratin 1, Keratin 5, Keratin 6, Keratin 14, Keratin 15, Keratin 16, Keratin 17 (from Lutz Langbein; predicted band: […]). The secondary antibody was used at 1:1000 in 5% milk containing PBS; 1 hr at RT; the secondary antibody was HRP-conjugated goat anti-Guinea Pig IgG (Santa Cruz). The loading controls were Rabbit anti-human GAPDH (Novus Biologicals; Cat. No.: NB300-322; predicted band: ˜37 kDa) or anti-human β-actin (Sigma-Aldrich; Cat. No.: A2668; predicted band: ˜42 kDa) 1:1000 in 5% milk containing PBS. HRP-conjugated goat anti-rabbit IgG Fc-segment (BioRad 170-6515; 1:1000) was used.
For statistical analysis, data were analyzed and graphs were plotted by using Origin Pro Plus 6.0 software (Microcal, Northampton, MA, USA), using Student's two-tailed two samples t-test and P<0.05 values were regarded as significant differences.

αSMA = assay: TGFβ1-induced αSMA expression in human fibroblasts (immunoblot); assay type: cell-based; conditions: αSMA/HSP90 ratio, FIG. 23
Protocol: Experimental Design: HaCaT and HFL-1 cells cultured in 24-well plates (1×10^5 cells/well/mL) in DMEM supplemented with 1% FBS and antibiotics/antimycotics in the presence of INM-501, INM-509, INM-505, INM-506, INM-513 (cannabigerol (CBG)), INM-517, HU-210 ((6aR,10aR)-9-(hydroxymethyl)-6,6-dimethyl-3-(2-methyloctan-2-yl)-6H,6aH,7H,10H,10aH-benzo[c]isochromen-1-ol)), and SR144528 (all at 1 μM concentration, EchoPharmaceuticals, AT Nijmegen, The Netherlands, Cayman Chemical, Ann Arbor, MI) alone or with simultaneously added human recombinant TGFβ1 at 10 and 20 ng/ml concentrations for 72 hr. Cell culture supernatants were removed and cells were lyzed with Cell Protein Extraction Buffer supplemented with Proteinases/Phosphatases Inhibitors Cocktail. […]
as §3

CB1 receptor = CB1 receptor expression by human fibroblasts under TGFβ1 (western blot); assay type: cell-based; conditions: CB1 receptor/HSP90 ratio, FIG. 22
[3] = Skin penetration, Franz diffusion cell; assay type: in vitro ADME, porcine; conditions: after 18 hours at 32° C.; 400 μg applied; LABRASOL/Plo-gel formulation; FIG. 18
Protocol: Skin penetration of formulations described herein was measured according to the following procedure: the formulation was LABRASOL® (caprylocaproyl polyoxyl-8 glycerides), Plo-gel (Poloxomer 407, Lecithin, isopropyl palmitate). The formulation is applied to the center part of the circle and is rubbed to the skin using a […]. The sample is mounted to the top of a Franz diffusion cell with the outer layer of the skin facing upward. The receptor medium of the Franz cell is filled with phosphate buffer. The cap of the cell is mounted and clamped. This construct is placed inside the incubator/shaker for 18 hours at 32° C. (FIG. 14).

IL-8 = IL-8 production by human keratinocytes; assay type: cell-based; conditions: basal, FIG. 13
IL-6 = assay: IFNγ/TNFα-induced IL-6 production by human keratinocytes; assay type: cell-based; conditions: FIG. 13

SMILES: Cc1ccc(Cn2nc(C(=O)N[C@@H]3C(C)(C)[C@@H]4CC[C@@]3(C)C4)cc2-c2ccc(Cl)c(C)c2)cc1 [SR144528, 5-(4-chloro-3-methylphenyl)-1-[(4-methylphenyl)methyl]-N-[(1S,2S,4R)-1,3,3-trimethylbicyclo[2.2.1]heptan-2-yl]-1H-pyrazole-3-carboxamide]
- basal CCL2 production (CCL2/MCP-1; HaCaT, 72 hr, method prints 1 mM, b249 prints 1 μM): did not significantly change
- IFNγ/TNFα-induced CCL2/MCP-1 production (CCL2/MCP-1; HaCaT, IFNγ and TNFα 10 ng/ml, 72 hr, method prints 1 mM, b249 prints 1 μM): did not significantly change

SMILES: CCCCCCC(C)(C)c1cc(O)c2c(c1)OC(C)(C)[C@@H]1CC=C(CO)C[C@@H]21 [HU-210, (6aR,10aR)-9-(hydroxymethyl)-6,6-dimethyl-3-(2-methyloctan-2-yl)-6H,6aH,7H,10H,10aH-benzo[c]isochromen-1-ol]
- IFNγ/TNFα-induced CCL2/MCP-1 production (CCL2/MCP-1): upregulated; also recorded: highest effect; also recorded: increase

SMILES: CCCCCc1cc(O)c(C/C=C(\C)CCC=C(C)C)c(O)c1 [INM-513, cannabigerol]
- IFNγ/TNFα-induced CCL2/MCP-1 production (CCL2/MCP-1): upregulated

SMILES: CCCCCc1cc(O)c2c(c1)OC(C)(C)c1ccc(C)cc1-2 [INM-517, 6,6,9-trimethyl-3-pentylbenzo[c]chromen-1-ol]
- TGF-β-induced downregulation of E-cadherin (E-cadherin): strong and potent effect
- TGF-β-induced fibronectin-EDA expression (fibronectin-EDA): preserving
- K14 gene expression [1]: downregulated
- expression of K15 [2]: promote
- K5 protein expression [2]: generally increases
- K14 protein expression [2]: generally increases
- K15 protein expression [2]: generally increases
- K16 protein expression [2]: generally increases
- K17 protein expression [2]: generally increases

SMILES: Cc1c(C(=O)NN2CCCCC2)nn(-c2ccc(Cl)cc2Cl)c1-c1ccc(I)cc1 [AM251, N-(piperidin-1-yl)-5-(4-iodophenyl)-1-(2,4-dichlorophenyl)-4-methyl-1H-pyrazole-3-carboxamide]
- TGFβ1-induced αSMA expression (TGFβ1-responsiveness) (αSMA): upregulating
- cell responsiveness to TGFβ1 (CB1 receptor): modify

SMILES: CCCCCc1cc(O)c2c(c1)OC(C)(C)[C@@H]1CCC(C)=C[C@@H]21 [Δ^9-tetrahydrocannabinol]
- IFNγ/TNFα-induced CCL2/MCP-1 production (CCL2/MCP-1): no significant effects
- basal CCL2 production (CCL2/MCP-1): no significant effects

SMILES: C=C(C)[C@@H]1CCC(C)=C[C@H]1c1c(O)cc(CCCCC)cc1O [INM-505, cannabidiols]
- location of cannabinoid molecules in skin [3]: located in keratinocytes and basal cells
- IL-8 production (IL-8): highly selective inhibitory effect
- production of IL-6 by IFNγ/TNFα (IL-6): attenuate
- IFNγ/TNFα-induced CCL2/MCP-1 production (CCL2/MCP-1): upregulated; also recorded: increase
- expression of K15 [2]: promote
- K5 protein expression [2]: generally increases
- K14 protein expression [2]: generally increases
- K15 protein expression [2]: generally increases
- K16 protein expression [2]: generally increases
- K17 protein expression [2]: generally increases

SMILES: COc1ccc(C(=O)c2c(C)n(CCN3CCOCC3)c3cc(I)ccc23)cc1 [AM630, 6-iodopravadoline]
- cell responsiveness to TGFβ1 (CB1 receptor): modify
